Reference: patent publication US20030236439A1, “Non-steroidal analogs of 2-methoxyestradiol” (priority 2002, published 2003)

Tests used:
[1] = tested on: chick embryo chorioallantoic membrane; test: chick embryo chorioallantoic membrane (CAM) assay; assay type: in vivo; conditions: 100 μg methylcellulose disk, after 48 hours
Description: Anti-proliferative activity can be evaluated in situ by testing the ability of the new non-steroidal estradiol analogs to inhibit the proliferation of new blood vessel cells (angiogenesis). A suitable assay is the chick embryo chorioallantoic membrane (CAM) assay described by Crum et al. Science 230:1375 (1985). See also, U.S. Pat. No. 5,001,116, hereby incorporated by reference, which describes the CAM assay. Briefly, fertilized chick embryos are removed from their shell on day 3 or 4, and a methylcellulose disc containing the drug is implanted on the chorioallantoic membrane. The embryos are examined 48 hours later and, if a clear avascular zone appears around the methylcellulose disc, the diameter of that zone is measured.

[2] = tested on: MCF-7 cell; conditions: in vitro, over a wide range of concentrations; cited from earlier work
[3] = tested on: vascular endothelial cell proliferation; conditions: vascular endothelial vs tumor cell proliferation; cited from earlier work

SMILES: COc1cc2c(cc1O)CC[C@@H]1[C@@H]2CC[C@]2(C)[C@@H](O)CC[C@@H]12 [2-methoxyestradiol]
- effect on cell mitosis and growth of new blood vessels (avascular zone) [1]: inhibit cell mitosis and the growth of new blood vessels
- estrogenic activity [2]: not estrogenic

SMILES: CO[C@@H]1[C@H](OC(=O)NC(=O)CCl)CC[C@]2(CO2)[C@H]1[C@@]1(C)O[C@@H]1CC=C(C)C [AGM-1470]
- half-maximal inhibition of endothelial cell proliferation at lower concentration than tumor cell proliferation [3]: 4 logs
